Laboratory results reported in publication PMC4579064 (Toxicology and applied pharmacology, 2015).

Assays:
recombinant human CPR [1] = target: T1, recombinant human CPR (Homo sapiens, UniProt P16435); experiment: CPR-mediated redox cycling, hydroxyl radical formation; format: biochemical; settings: menadione; Fe/EDTA, terephthalate
T1 sequence (P16435 1-677): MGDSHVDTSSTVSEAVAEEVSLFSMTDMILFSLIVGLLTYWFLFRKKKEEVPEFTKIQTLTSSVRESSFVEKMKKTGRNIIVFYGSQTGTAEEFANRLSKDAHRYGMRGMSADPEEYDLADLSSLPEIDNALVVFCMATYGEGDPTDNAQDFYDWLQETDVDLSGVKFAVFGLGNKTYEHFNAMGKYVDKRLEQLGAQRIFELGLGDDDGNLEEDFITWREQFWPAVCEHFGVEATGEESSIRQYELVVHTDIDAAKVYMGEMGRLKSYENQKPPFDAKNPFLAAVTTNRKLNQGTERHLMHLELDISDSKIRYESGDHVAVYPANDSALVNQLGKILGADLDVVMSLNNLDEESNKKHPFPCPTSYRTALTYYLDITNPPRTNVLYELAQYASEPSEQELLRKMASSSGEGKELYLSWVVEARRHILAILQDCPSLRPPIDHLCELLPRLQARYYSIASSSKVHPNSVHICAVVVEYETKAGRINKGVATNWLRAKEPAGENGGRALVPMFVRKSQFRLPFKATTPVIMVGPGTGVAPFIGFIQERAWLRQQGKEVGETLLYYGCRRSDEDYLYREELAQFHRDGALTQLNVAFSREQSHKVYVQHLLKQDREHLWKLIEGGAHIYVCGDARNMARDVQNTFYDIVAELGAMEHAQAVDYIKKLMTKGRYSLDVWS

CYP2C8 = target: T2, CYP2C8 (Homo sapiens, UniProt P10632); experiment: recombinant CYP activity with fluorogenic substrate; format: biochemical
T2 sequence (P10632 1-490): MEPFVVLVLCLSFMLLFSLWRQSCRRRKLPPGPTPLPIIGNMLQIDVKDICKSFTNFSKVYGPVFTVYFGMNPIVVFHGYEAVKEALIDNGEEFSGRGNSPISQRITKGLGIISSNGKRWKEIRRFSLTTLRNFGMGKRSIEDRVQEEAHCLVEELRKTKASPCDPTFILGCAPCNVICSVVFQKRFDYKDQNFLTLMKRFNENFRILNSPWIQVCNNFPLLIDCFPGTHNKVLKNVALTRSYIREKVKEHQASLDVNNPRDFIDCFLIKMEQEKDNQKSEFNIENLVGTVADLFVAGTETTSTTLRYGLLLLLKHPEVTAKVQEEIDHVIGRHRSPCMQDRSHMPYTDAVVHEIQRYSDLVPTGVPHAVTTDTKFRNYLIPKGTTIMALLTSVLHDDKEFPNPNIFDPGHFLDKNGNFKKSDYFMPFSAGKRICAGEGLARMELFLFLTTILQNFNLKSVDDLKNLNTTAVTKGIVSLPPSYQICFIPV

[2] = format: in vivo, rat; settings: menadione 20 min after parathion; 60 min
brain ChE = brain ChE activity in parathion-treated rats; format: in vivo, rat; settings: parathion 8 mg/kg oral, menadione 40 mg/kg ip 20 min after parathion, 60 min
CYP2C19 = CYP2C19 (Homo sapiens, UniProt P33261); experiment: recombinant CYP activity with fluorogenic substrate; format: biochemical
CYP1A2 [3] = target: T3, CYP1A2 (Homo sapiens, UniProt P05177); experiment: as above
T3 sequence (P05177 2-516 limits assumed): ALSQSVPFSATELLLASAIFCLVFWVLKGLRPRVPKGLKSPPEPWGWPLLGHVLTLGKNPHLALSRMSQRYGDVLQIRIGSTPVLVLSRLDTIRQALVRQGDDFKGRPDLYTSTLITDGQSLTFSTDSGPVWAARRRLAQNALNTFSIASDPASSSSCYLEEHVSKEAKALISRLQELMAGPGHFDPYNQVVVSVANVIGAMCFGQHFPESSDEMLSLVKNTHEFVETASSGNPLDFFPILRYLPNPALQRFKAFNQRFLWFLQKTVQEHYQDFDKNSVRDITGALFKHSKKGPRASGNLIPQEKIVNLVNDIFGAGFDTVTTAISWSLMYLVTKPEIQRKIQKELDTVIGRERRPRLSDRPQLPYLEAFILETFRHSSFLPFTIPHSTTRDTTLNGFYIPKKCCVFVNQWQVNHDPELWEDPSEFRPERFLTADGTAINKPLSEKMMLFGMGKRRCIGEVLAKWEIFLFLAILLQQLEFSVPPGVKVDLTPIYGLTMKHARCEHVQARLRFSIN

CYP1A2 [4] = target: T3, CYP1A2
recombinant human CPR [5] = target: T1, recombinant human CPR; experiment: CPR-mediated redox cycling, H2O2 formation; format: biochemical; settings: menadione as redox cycling substrate of CPR; Amplex Red
human liver microsomes = experiment: paraoxon formation from parathion; format: biochemical
CYP2A6 = target: T4, CYP2A6 (Homo sapiens, UniProt P11509); experiment: recombinant CYP activity with fluorogenic substrate; format: biochemical
T4 sequence (P11509 1-494): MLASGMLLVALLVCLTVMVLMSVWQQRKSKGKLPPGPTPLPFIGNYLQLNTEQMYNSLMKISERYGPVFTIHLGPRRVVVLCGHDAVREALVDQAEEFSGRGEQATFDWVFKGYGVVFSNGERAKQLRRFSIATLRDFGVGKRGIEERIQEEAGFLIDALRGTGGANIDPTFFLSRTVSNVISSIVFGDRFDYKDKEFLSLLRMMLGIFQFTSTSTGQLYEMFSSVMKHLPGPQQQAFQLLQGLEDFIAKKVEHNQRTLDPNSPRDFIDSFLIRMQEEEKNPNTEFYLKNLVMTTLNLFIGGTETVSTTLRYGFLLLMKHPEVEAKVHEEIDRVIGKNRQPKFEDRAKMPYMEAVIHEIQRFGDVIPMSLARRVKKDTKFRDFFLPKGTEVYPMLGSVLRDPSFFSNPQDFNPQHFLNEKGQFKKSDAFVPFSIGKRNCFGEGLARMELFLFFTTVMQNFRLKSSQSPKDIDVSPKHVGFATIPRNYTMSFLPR

Sequence of CYP2C19 (P33261 whole entry, one chain of several): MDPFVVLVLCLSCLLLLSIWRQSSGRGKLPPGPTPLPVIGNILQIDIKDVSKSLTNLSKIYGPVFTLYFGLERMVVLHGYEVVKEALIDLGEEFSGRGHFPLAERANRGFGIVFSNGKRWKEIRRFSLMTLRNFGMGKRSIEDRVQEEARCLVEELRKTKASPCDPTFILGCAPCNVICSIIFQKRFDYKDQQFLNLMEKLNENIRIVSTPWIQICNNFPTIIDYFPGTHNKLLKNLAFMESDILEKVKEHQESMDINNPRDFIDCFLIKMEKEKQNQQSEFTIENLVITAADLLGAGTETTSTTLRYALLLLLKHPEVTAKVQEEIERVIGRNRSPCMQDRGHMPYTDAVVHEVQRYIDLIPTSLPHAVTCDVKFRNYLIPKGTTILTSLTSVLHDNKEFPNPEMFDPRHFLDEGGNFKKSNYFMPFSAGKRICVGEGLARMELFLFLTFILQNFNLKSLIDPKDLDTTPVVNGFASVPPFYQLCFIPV

For `CC1=CC(=O)c2ccccc2C1=O` [menadione, 2-methylnaphthalene-1,4-dione], the “Vmax for formation of 2-hydroxyterephthalate, a marker of hydroxyl radicals” value (recombinant human CPR [1]) was 1.2 µmol/min/mg CPR protein, the IC50 (CYP2C8) was 2.36 ± 0.11 µM and the “liver levels of parathion” value [2] was “without altering”. The parathion in blood [2] was “striking increase”, the “serum and brain parathion levels” value [2] was “significant increases” and the “forebrain ChE inhibited” value (brain ChE) was 11%. For the same molecule, the “hindbrain ChE inhibited” value (brain ChE) was 17%, the IC50 (CYP2C19) was 8.51 ± 0.38 µM and the IC50 (CYP1A2 [3]) was 4.51 ± 0.57 µM. The paraoxon formation (CYP1A2 [4]) was “marked decrease”, the “Vmax for H2O2 formation” value (recombinant human CPR [5]) was 4.4 µmol/min/mg CPR protein and the paraoxon formation (human liver microsomes) was “marked decrease”. It also gave an IC50 (CYP2A6) of 8.01 ± 0.62 µM.
